According to US9802982B2, “Peptide and uses thereof” (Tunghai University, priority 2014, dated 2017):
Converted amounts (≈) assume the structure as drawn. Like-named read-outs stand apart in the source and are kept apart here. Where a SMILES comes first, the peptide text is derived from it. Where no end group is shown, it is not given here. [ ]: non-standard residue; d: D form. NMeW = CN[C@@H](Cc1c[nH]c2ccccc12)C(=O)O; NMeR = CN[C@@H](CCCNC(=N)N)C(=O)O

Columns and labels:
Assay type in all cases: cell-based
[1] = test system: Escherichia coli (ATCC 25922)
Protocol: (§1) Three bacteria strains, Escherichia coli (ATCC 25922), Staphylococcus aureus (ATCC25923), and Pseudomon asaeruginosa (ATCC27853) were brought from the Food Industry Research and Development Institute, Hsinchu, Taiwan.
(§2) Each of the strain (0.1-0.2 mL) was inoculated on an agar gel medium (Merck, Whitehouse, Station, N.J., USA) and isolated into single colony by streak plate method. Each of the strain was spread evenly by a sterile L-shaped glass rod and incubated overnight. After that, the single colony on each agar gel medium was transferred to liquid LB medium (Merck, Whitehouse, Station, N.J., USA) and incubated at 37° C. in an incubator.
(§3) Each bacteria strain from example 6 was incubated to its mid-log phase at 37° C. in 2 mL Lysogeny broth (LB) in an incubator, wherein the mid-log phase of Escherichia coli is 4 hours, the mid-log phase of Staphylococcus aureus is 6 hours, and the mid-log phase of Pseudomonas aeruginosa is 8 hours. According to 0.5 McFarland Standard, the number of bacteria in a broth is 1×10^8 CFU/mL when the OD595 is 0.08-0.09. […] And then, the number of bacteria in each broth was diluted from 1×10^8 CFU/mL to […]. Finally, each broth has bacterial number of 5×10^5 CFU/mL in Mueller Hinton broth (MHB).
(§4) 199 μL of each of the foresaid diluted broth was respectively placed into a 96 well plate, and 1 μL of each peptide from example 5 was added into each well to incubate at 37° C. in an incubator for 16 hours. The OD595 of the coculture of each broth and each peptide was measured by a microplate spectrophotometer. In addition, the bacterial broth without the peptide served as positive control (PC), and the free broth MHB culture medium served as negative control (NC). The minimum inhibitory concentration (MIC90) of each peptide against each bacteria was measured according to the following equation, wherein A is the absorbance. MIC90≦[(Apeptide−ANC)(APC−ANC)]

[2] = test system: Pseudomonas aeruginosa (ATCC27853)
Protocol: as §1, §2, §3, §4

[3] = test system: Staphylococcus aureus (ATCC25923)
Protocol: as §1, §2, §3, §4

[4] = test system: Escherichia coli (ATCC 25922); remark: listed apart in the source
Protocol: as §1, §2, §3, §4
(§5) In addition, to measure the minimum bactericidal concentration (MBC), 1 μL of each broth cocultured with the peptide was sprayed on a flat plate medium at 37° C. in an incubator for 24 hours. If the incubation result has no bacteria, the concentration of the reagent is MBC.

[5] = test system: Pseudomonas aeruginosa (ATCC27853); remark: listed apart in the source
Protocol: as §1, §2, §3, §4, §5

[6] = test system: Staphylococcus aureus (ATCC25923); remark: listed apart in the source
Protocol: as §1, §2, §3, §4, §5

human red blood cells = test: Hemolysis assay
Protocol: 1-3 mL human blood was centrifuged at 3000 rpm, 4° C. for 10 minutes. The supernatant was discarded. The remaining was washed with cold phosphate buffer saline (PBS) and centrifuged at 3000 rpm, 4° C. for 1 minute. The supernatant was discarded. The remaining red blood cells were washed and diluted as 2% red blood cell solution with cold PBS.
A mixture of 100 μL red blood cell solution and 100 μL PBS was served as a negative control. A mixture of 100 μL red blood cells solution and 100 μL 0.2% Triton X-100 was served as a positive control. The solution of peptide 1, peptide 2, peptide 3, peptide 5, and peptide 6 were respectively mixed with red blood cell solution with the same volume and incubated at 37° C. for 1 hour. After incubation, the mixture was centrifuged at 3000 rpm, 4° C. for 10 minutes. Each of the supernatant was collected to measure the absorbance at wavelength of 405 nm by an ELISA plate reader. The hemolysis of each peptide was calculated according to the following equation, wherein Abs represents the absorbance. [(Abspeptide−AbsPBS)/(AbsTriton X-100−AbsPBS)]×100

[7] = 5×10^5 CFU/mL in MHB, 37° C., 16 hours, OD595
[8] = coculture plated on flat plate medium, 37° C., 24 hours, no bacteria

Molecule | Minimum inhibitory concentration (MIC90) Escherichia coli ([1]; ATCC 25922, 16 h) [µM] | Minimum inhibitory concentration (MIC90) Pseudomonas aeruginosa ([2]; ATCC27853, 16 h) [µM] | Minimum inhibitory concentration (MIC90) Staphylococcus aureus ([3]; ATCC25923, 16 h) [µM] | Minimum bactericidal concentration (MBC99.9) Escherichia coli ([4]; ATCC 25922, 24 h) [µM] | Minimum bactericidal concentration (MBC99.9) Pseudomonas aeruginosa ([5]; ATCC27853, 24 h) [µM] | Minimum bactericidal concentration (MBC99.9) Staphylococcus aureus ([6]; ATCC25923, 24 h) [µM] | Hemolysis (%) (human red blood cells; red cells of human, 1 h) | other results
CC(C)C[C@H](NC(=O)[C@H](Cc1c[nH]c2ccccc12)NC(=O)[C@@H](N)CCCCN)C(=O)N[C@@H](CCCNC(=N)N)C(=O)N[C@@H](CCCNC(=N)N)C(=O)N[C@H](C(=O)N(C)[C@@H](Cc1c[nH]c2ccccc12)C(=O)N[C@@H](CCCNC(=N)N)C(=O)N[C@@H](Cc1c[nH]c2ccccc12)C(=O)N[C@@H](Cc1c[nH]c2ccccc12)C(=O)N[C@@H](CCCNC(=N)N)C(N)=O)C(C)C [peptide 1, KWLRRVMeWRWWR] (H-KWLRRV[NMeW]RWWR-NH2) | 5 (≈ 8.71 µg/mL) | 10 (≈ 17.4 µg/mL) | 5 (≈ 8.71 µg/mL) | 20 (≈ 34.8 µg/mL) | 10 (≈ 17.4 µg/mL) | 40 (≈ 69.6 µg/mL) | 20.1 | Hemolysis, comparison in words (human red blood cells): significantly lower than the peptide 5
CC(C)C[C@H](NC(=O)[C@H](CCCNC(=N)N)NC(=O)[C@@H](N)CCCCN)C(=O)N[C@@H](CCCNC(=N)N)C(=O)N[C@@H](CCCNC(=N)N)C(=O)N[C@H](C(=O)N(C)[C@@H](Cc1c[nH]c2ccccc12)C(=O)N[C@@H](CCCNC(=N)N)C(=O)N[C@@H](Cc1c[nH]c2ccccc12)C(=O)N[C@@H](Cc1c[nH]c2ccccc12)C(=O)N[C@@H](CCCNC(=N)N)C(N)=O)C(C)C [peptide 4, KRLRRVMeWRWWR] (H-KRLRRV[NMeW]RWWR-NH2; N-terminus assumed) | 20 (≈ 34.2 µg/mL) | 20 (≈ 34.2 µg/mL) | 10 (≈ 17.1 µg/mL) | 20 (≈ 34.2 µg/mL) | 20 (≈ 34.2 µg/mL) | 10 (≈ 17.1 µg/mL) | – | –
CC(C)C[C@H](NC(=O)[C@H](Cc1c[nH]c2ccccc12)NC(=O)[C@@H](N)CCCCN)C(=O)N[C@@H](CCCNC(=N)N)C(=O)N(C)[C@@H](CCCNC(=N)N)C(=O)N[C@H](C(=O)N[C@@H](Cc1c[nH]c2ccccc12)C(=O)N[C@@H](CCCNC(=N)N)C(=O)N[C@@H](Cc1c[nH]c2ccccc12)C(=O)N[C@@H](Cc1c[nH]c2ccccc12)C(=O)N[C@@H](CCCNC(=N)N)C(N)=O)C(C)C [peptide 5, KWLRMeRVWRWWR] (H-KWLR[NMeR]VWRWWR-NH2) | – | – | – | – | – | – | 44.9 | –
KWLRRPWRRWR-NH2 [peptide 2, KWLRRPWRRWR] | – | – | – | – | – | – | – | Minimum inhibitory concentration (MIC90) Escherichia coli [1, 7]: 2.5 µM; Minimum inhibitory concentration (MIC90) Pseudomonas aeruginosa [2, 7]: 5 µM; Minimum inhibitory concentration (MIC90) Staphylococcus aureus [3, 7]: 2.5 µM; Minimum bactericidal concentration (MBC99.9) Escherichia coli [4, 8]: 10 µM; Minimum bactericidal concentration (MBC99.9) Pseudomonas aeruginosa [5, 8]: 20 µM; Minimum bactericidal concentration (MBC99.9) Staphylococcus aureus [6, 8]: 5 µM; Hemolysis, comparison in words (human red blood cells; comparison among the peptides of Table 4): the lowest
KWLRRVWRWWR-NH2 [peptide 6, KWLRRVWRWWR] | 5 | 5 | 5 | 5 | 5 | 10 | 70.7 | –
KWLRWVRRRWW-NH2 [peptide 3, KWLRWVRRRWW] | 2.5 | 5 | 2.5 | 10 | 20 | 5 | 3.4 | Hemolysis, comparison in words (human red blood cells): the lowest
Triton X-100 [Positive control, reference compound] | – | – | – | – | – | – | – | Hemolysis (%) (human red blood cells): 100%
